# Assay results published in ChEMBL document CHEMBL5728679, “Imidazopyridinyl compounds and use thereof for treatment of neurodegenerative disorders” (2021).
# Molecular target: Tyrosine-protein kinase ABL1 (Homo sapiens, UniProt P00519)
# Test: Kinase Assay: c-abl: ADP-Glo assay kit was purchased from Promega. Magnesium chloride (MgCl2), bovine serum albumin (BSA), ethylene glycol-bis(p-aminoethyl ether)-N,N,N′,N′-tetraacetic acid (EGTA), triton X-100, 1,4-dithiothreitol (DTT) and dimethyl sulfoxide (DMSO) were purchased from Sigma-Aldrich. HEPES buffer was purchased from Gibco. ABL1 kinase and Abltide were purchased from Signalchem.c-Abl kinase activity was measured by Promega's ADP-Glo™ Assay. In this assay, His-tagged recombinant human ABL1 (0.25 ng/μl) is incubated with 5 μL of compounds (0.5% DMSO), 5 μL of Abltide (0.01 μg/μl) and 5 μL of ATP (25 μM) in buffer (50 mM HEPES, 7.5; 10 mM MgCl2; 1 mM EGTA; 0.05% BSA; 0.01% Triton X-100; 2 mM DTT). The assay was started by incubating the reaction mixture in a 96-well plate at 30° C. for 30-min. After the incubation, 25 μL ADP-Glo reagent was added and the reaction was incubated at room temperature for 40-min to stop the reaction and degrade residual ATP. The ADP product was then converted to ATP by adding 50 μL per well of detection reagent. Luminescence was detected after 30-min room temperature incubation with the Molecular device I3X plate reader. The IC50 values were calculated from a series of percent inhibition values determined at a range of inhibitor concentration using software routines as implemented in the GraphPad Prism 7 software and Sigma Plot 13.0.
# Chain of Tyrosine-protein kinase ABL1 (P00519 whole entry): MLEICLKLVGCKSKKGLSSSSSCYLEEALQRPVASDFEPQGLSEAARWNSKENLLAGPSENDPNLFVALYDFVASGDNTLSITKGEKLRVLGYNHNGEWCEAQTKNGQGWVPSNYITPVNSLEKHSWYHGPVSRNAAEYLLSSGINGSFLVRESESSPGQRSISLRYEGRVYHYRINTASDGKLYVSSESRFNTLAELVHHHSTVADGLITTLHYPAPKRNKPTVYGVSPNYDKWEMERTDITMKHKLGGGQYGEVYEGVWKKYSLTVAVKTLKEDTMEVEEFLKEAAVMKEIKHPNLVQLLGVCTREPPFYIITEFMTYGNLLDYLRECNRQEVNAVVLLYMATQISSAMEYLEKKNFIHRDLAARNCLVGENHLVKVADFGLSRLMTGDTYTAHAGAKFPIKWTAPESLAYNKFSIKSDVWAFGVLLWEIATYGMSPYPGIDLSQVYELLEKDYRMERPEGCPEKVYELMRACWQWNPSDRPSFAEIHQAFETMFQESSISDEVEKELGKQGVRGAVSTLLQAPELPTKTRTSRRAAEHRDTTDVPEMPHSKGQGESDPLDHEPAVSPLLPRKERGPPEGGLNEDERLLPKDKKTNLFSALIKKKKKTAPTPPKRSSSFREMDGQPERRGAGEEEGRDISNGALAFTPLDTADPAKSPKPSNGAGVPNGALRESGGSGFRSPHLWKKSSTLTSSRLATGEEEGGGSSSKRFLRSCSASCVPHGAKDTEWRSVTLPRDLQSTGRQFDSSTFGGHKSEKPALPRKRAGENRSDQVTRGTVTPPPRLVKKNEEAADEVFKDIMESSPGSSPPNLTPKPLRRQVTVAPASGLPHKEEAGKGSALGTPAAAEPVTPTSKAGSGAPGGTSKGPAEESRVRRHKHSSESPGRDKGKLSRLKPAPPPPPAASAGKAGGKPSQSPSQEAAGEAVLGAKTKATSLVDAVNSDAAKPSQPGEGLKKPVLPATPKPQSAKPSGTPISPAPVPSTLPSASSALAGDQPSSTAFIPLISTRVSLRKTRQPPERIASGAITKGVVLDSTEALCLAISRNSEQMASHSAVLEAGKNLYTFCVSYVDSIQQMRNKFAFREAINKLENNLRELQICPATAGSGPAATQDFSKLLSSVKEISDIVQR
row,IC50,SMILES
1,< 10 nM,Cc1cccc(C)c1-c1ccc2nc(NC(=O)[C@@H]3C[C@@H]3F)cn2c1
2,< 10 nM,COc1ccncc1-c1ccc2nc(NC(=O)[C@@H]3C[C@@H]3F)cn2c1
3,< 10 nM,Cc1c(F)cccc1-c1ccc2nc(NC(=O)C3CC3(F)F)cn2c1 (centres undefined)
4,< 10 nM,Cc1cc2scnc2cc1-c1ccc2nc(NC(=O)[C@@H]3C[C@@H]3F)cn2c1
